Here are results for eleven compounds from PubChem BioAssay (NCI).

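Values below derive from 48-hour exposures of cells grown in 96-well plates, with endpoints linearly interpolated between the two concentrations bracketing the appropriate inhibition level. GI50 is the concentration that inhibits growth by half. At the TGI there is no net growth.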

Some test systems named below: UO-31 renal; SK-MEL-28 melanoma; EKVX NSCLC; SW-620 colon; SF-539 CNS; LOX IMVI melanoma; T-47D breast; TK-10 renal; HOP-92 NSCLC; HL-60(TB) leukemia.
Assay in all cases: DTP human tumour cell line panel, 48 h

Usually TGI stands for the concentration giving total growth inhibition. High values mean lower sensitivity of the cells, low ones greater sensitivity of the cells. Turning to `Cc1nc(C(N)=S)sc1C(=O)C/C(=N/N)C(=O)Nc1ccc(Cl)cc1`, the TGI in the assay on UO-31 renal, in the assay with SK-MEL-28 melanoma, in the assay on EKVX NSCLC, in the assay with SW-620 colon, with SF-539 CNS and in the assay on LOX IMVI melanoma was > 100 µM each time. Moreover, the TGI in the assay with T-47D breast and in the assay with TK-10 renal was > 100 µM each time.
What is called GI50 is the concentration at which growth is held to half of that of the control. In the case of `CC(C)Nc1ncc2cc(Oc3ccc(F)cc3F)c(=O)n(C)c2n1`, the GI50 in the assay on UO-31 renal was 5.17 µM; in the assay on SK-MEL-28 melanoma it was > 25 µM; with SW-620 colon, > 25 µM; in the assay with SF-539 CNS it was > 25 µM; in the assay with LOX IMVI melanoma, > 25 µM; in the assay with HOP-92 NSCLC, 2.89 µM. In addition, the GI50 with T-47D breast was > 25 µM; in the assay on TK-10 renal, 15.8 µM; in the assay on HL-60(TB) leukemia it was > 25 µM. Besides, the TGI with UO-31 renal is > 13.4 µM; in the assay on SK-MEL-28 melanoma, > 25 µM; with SW-620 colon, > 25 µM; in the assay with SF-539 CNS, > 25 µM; in the assay with LOX IMVI melanoma it was > 25 µM; in the assay with HOP-92 NSCLC, 21.6 µM. In addition, the TGI in the assay on T-47D breast, in the assay with TK-10 renal and in the assay with HL-60(TB) leukemia was > 25 µM throughout.
Turning to `COC1=C(Br)C(=O)C2=C(C1=O)C1C3=C(C(=O)C=CC3=O)C2c2ccccc21` (stereo not drawn), the GI50 with UO-31 renal is 12.2 µM; with SK-MEL-28 melanoma it was 30.7 µM; in the assay with EKVX NSCLC, 5.81 µM; with SW-620 colon, 4.56 µM; in the assay with SF-539 CNS, 2.92 µM; with LOX IMVI melanoma, 4.91 µM. The GI50 was 2.51 µM in the assay with HOP-92 NSCLC, 3.16 µM in the assay on T-47D breast and 23.8 µM with TK-10 renal. Besides, the TGI in the assay with UO-31 renal is 41.2 µM; with SK-MEL-28 melanoma, > 100 µM; in the assay with EKVX NSCLC it was 22.2 µM; in the assay on SW-620 colon, > 100 µM; in the assay on SF-539 CNS it was 8.79 µM; in the assay on LOX IMVI melanoma, 26 µM. The TGI with HOP-92 NSCLC turned out to be 11.6 µM; in the assay with T-47D breast, 21.7 µM; with TK-10 renal it was 43.5 µM.
For the compound `CCOC(=O)Nc1nc2c(C)cccc2s1`, the GI50 was 33.5 µM with UO-31 renal; > 100 µM with SK-MEL-28 melanoma; 64.7 µM with SW-620 colon; 77.7 µM with SF-539 CNS; 49.7 µM with LOX IMVI melanoma; 13.9 µM with HOP-92 NSCLC. In addition, the GI50 was 47.4 µM with T-47D breast, 90.9 µM with TK-10 renal and 29.9 µM in the assay on HL-60(TB) leukemia. Moreover, the total growth inhibition concentration (TGI) is > 100 µM with UO-31 renal; > 100 µM in the assay with SK-MEL-28 melanoma; > 100 µM in the assay on SW-620 colon; > 100 µM in the assay on SF-539 CNS; > 100 µM in the assay with LOX IMVI melanoma; 71.5 µM in the assay on HOP-92 NSCLC. The concentration for total growth inhibition (TGI) in the assay with T-47D breast, with TK-10 renal and with HL-60(TB) leukemia was > 100 µM each time.
Take `NNC(=O)/C(NC(=O)c1ccccc1)=C(\N)c1ccc(Cl)cc1`: the concentration for total growth inhibition (TGI) in the assay on UO-31 renal, in the assay with SK-MEL-28 melanoma, with EKVX NSCLC, in the assay on SW-620 colon, in the assay with SF-539 CNS and with LOX IMVI melanoma was > 100 µM throughout. For the same compound, the TGI in the assay with HOP-92 NSCLC, in the assay on TK-10 renal and in the assay on HL-60(TB) leukemia was > 100 µM throughout.
Turning to `NC(CC1=CCC=CC1)C(=O)O` (stereo not drawn), the total growth inhibition concentration (TGI) in the assay with UO-31 renal, with SK-MEL-28 melanoma, in the assay on EKVX NSCLC, in the assay on SW-620 colon, in the assay with LOX IMVI melanoma and in the assay on HOP-92 NSCLC was > 100 µM in each case. The TGI in the assay on T-47D breast and with TK-10 renal was > 100 µM in each case.
In the case of `CCOC(=O)/C(=C\c1ccc[nH]1)C(=O)c1ccccc1`, the total growth inhibition concentration (TGI) with UO-31 renal, in the assay on SK-MEL-28 melanoma, with EKVX NSCLC, in the assay with SW-620 colon, in the assay on SF-539 CNS and in the assay on LOX IMVI melanoma was > 100 µM in each case. Moreover, the total growth inhibition concentration (TGI) in the assay with HOP-92 NSCLC, in the assay on TK-10 renal and with HL-60(TB) leukemia was > 100 µM throughout.
Turning to `COc1ccc(N(/C=C/C(=O)C(F)(F)F)CC(=O)c2ccc(Cl)c(Cl)c2)cc1`, the GI50 in the assay on UO-31 renal was 24.1 µM; with SK-MEL-28 melanoma, 28.1 µM; in the assay on EKVX NSCLC, 13.2 µM; in the assay on SW-620 colon, 27 µM; with SF-539 CNS, 16.1 µM; with LOX IMVI melanoma, 11.8 µM. The GI50 in the assay with HOP-92 NSCLC was 13.2 µM; with T-47D breast, 18.9 µM; with TK-10 renal, 13.7 µM. Also, the concentration for total growth inhibition (TGI) in the assay with UO-31 renal is > 100 µM; in the assay with SK-MEL-28 melanoma it was 79.4 µM; in the assay with EKVX NSCLC it was 27.6 µM; in the assay on SW-620 colon it was > 100 µM; with SF-539 CNS it was 30.3 µM; with LOX IMVI melanoma, 27.4 µM. In addition, the TGI in the assay with HOP-92 NSCLC amounted to 41.8 µM; in the assay on T-47D breast, 48.3 µM; with TK-10 renal it was 27.1 µM.
`CC(=O)/C=C/c1ccc(C)cc1`: the concentration for total growth inhibition (TGI) in the assay with UO-31 renal, in the assay with SK-MEL-28 melanoma, in the assay on EKVX NSCLC, in the assay on SW-620 colon, in the assay with SF-539 CNS and in the assay on LOX IMVI melanoma was > 100 µM each time. Moreover, the TGI in the assay on HOP-92 NSCLC, with TK-10 renal and in the assay with HL-60(TB) leukemia was > 100 µM throughout.
Consider `CC(C)CN(CC(C)C)C(=O)C1CCCC[C@@H]1C(=O)O` (stereo partly drawn), for which the concentration for total growth inhibition (TGI) with UO-31 renal, in the assay with SK-MEL-28 melanoma, in the assay with EKVX NSCLC, with SW-620 colon, in the assay on SF-539 CNS and in the assay with LOX IMVI melanoma was > 100 µM each time. Moreover, the TGI in the assay on HOP-92 NSCLC, in the assay with TK-10 renal and in the assay with HL-60(TB) leukemia was > 100 µM each time.
For the compound `COc1cc2c(cn1)[nH]c1ccccc12`, the TGI in the assay with UO-31 renal, with SK-MEL-28 melanoma, with EKVX NSCLC, in the assay with SW-620 colon, in the assay on SF-539 CNS and with LOX IMVI melanoma was > 100 µM each time. Also, the concentration for total growth inhibition (TGI) with HOP-92 NSCLC, in the assay on TK-10 renal and with HL-60(TB) leukemia was > 100 µM each time.
